Values quoted from earlier work, collected in patent US20080160083A1, “COMPOSITION AND METHOD FOR TREATMENT OF PREMENSTRUAL SYMPTOMS” (priority 2007, published 2008).

How the values were obtained:
[1] = women taking daily vitamin B6 supplements for PMS whose blood levels of B6 were above normal; Dalton, Lancet 1985
[2] = all adults; Institute of Medicine 1998

## Cc1ncc(CO)c(CO)c1O [vitamin B6, 4,5-bis(hydroxymethyl)-2-methylpyridin-3-ol]
[1]
  neuropathy present (number of women): 23 of 58
[2]
  upper tolerable intake level (UL): 100 mg per day
